Values joined by “and” are separate entries in the source; they are usually repeats but may differ in a detail not shown here. Identical values can stand only once.
How the values were obtained:
[1] = test system: T-cells; assay: 3-days T-cell proliferation assay (3H-thymidine) after three rounds of in vitro stimulation of PBMC bulk cultures with RAS peptides; format: cell-based, human; conditions: bulk cultures stimulated three rounds with TG02 + 13R, 10 μM peptide
Description: In this example, Buffy coats were collected from 4 normal human donors (Buffy 1, Buffy 2, Buffy 3, and Buffy 4) and were cultured in vitro. The in vitro PBMCs were stimulated with a single RAS peptide or a mixture of RAS peptides, and T-cell proliferation assays performed.
The procedure must be performed at room temperature until point 5. All handling of cells in the open is done in a vertical laminar flow hood. • 1. Rapidly transfer the vials, each vial with frozen PBMC from a buffy coat (Buffy 1, Buffy 2, Buffy 3, and Buffy 4), to a water bath at 37° C. • 2. Shake the vials manually at regular intervals (approx. 2-3 min.) and remove them from the water bath while some ice is still present. • 3. When all the ice is melted, transfer 1 ml of CellGro DC medium drop-wise to the cell suspension. • 4. Transfer the cell suspension to a 50 ml tube containing 20 ml of CellGro DC medium. • 5. Centrifuge cells at 500G for 5 min at room temperature. • 6. Resuspend the cells in 5 ml CellGro DC medium. • 7. Count the number of viable cells using a Burker chamber or KOVA Galsstic slides and adjust the cell concentration to 2×10^6 cells/ml in complete CellGro DC medium (see recipe). Total cell numbers: Buffy 1-45×10^6, Buffy 2-27.5×10^6, Buffy 3-40.5×10^6, and Buffy 4-40.5×10^6 cells.
b. Bulk cultures for increasing number of RAS peptide reactive T-cells • 1. […]

[2] = test system: any RAS mutation; conditions: cited from earlier work

With “KLVVVGAGCVGKSALTI (listed as Homo sapiens) [13C, RAS peptide of the peptide mixture having a G13C mutation]” the “Counts per minute (CPM), APC + T-cell + 13 C” value ([1]; Donor #3, single replicates) was 27813 CPM and 32522 CPM and 28869 CPM and the “Mean counts per minute (CPM), APC + T-cell + 13 C” value ([1]; Mean Donor #3) was 29735 CPM.
For “paitumumab-FOLFOX4: panitumumab (printed paitumumab) in combination with FOLFOX4 chemotherapy”, the “Outcome of treatment in patients having any RAS mutation” value [2] is given as “may even be harmed”.

From patent publication US20190374628A1, “MUTATED FRAGMENTS OF THE RAS PROTEIN” (Targovax ASA, priority 2015, published 2019)
